Reference: patent US5830855A, “Lipodepsipeptides as antifungal and fungicidal agents” (priority 1996, dated 1998)
Numbered stars: 1 amine (or outer) side, 2 acyl side, 3 side chain; on linkers, the order of the positions; unused ones are H or OH. Bridge positions count the residues as written; N and C are the ends. Square brackets hold non-standard residues; d marks the D form. Peptide text beside a SMILES is read from it. * marks the point of attachment. ξ: configuration not given here. Asp(3S-OH) = N[C@H](C(=O)O)[C@H](O)C(=O)O; Thr(4-Cl) = N[C@H](C(=O)O)[C@H](O)CCl; ξAsp(3ξ-OH) = NC(C(=O)O)C(O)C(=O)O; X3 = O=C(C(N[*:1])C(O)CCl)[*:2]; X1 = CCCCCCCCC[C@@H](O)CC(=O)*; X2 = CCCCCCCCCCCC(O)CC(=O)*; dDab = NCC[C@@H](N)C(=O)O; Dab = NCC[CH](N)C(=O)O; Orn = NCCC[CH](N)C(=O)O; hSer = N[CH](CCO)C(=O)O; Dhb = C/C=C(\N)C(=O)O

How the values were obtained:
[1] = system: phytohemagglutinin (PHA)-induced lymphocyte proliferation; test: PHA-induced lymphocyte proliferation ([3H]-thymidine incorporation); format: cell-based, human
Description: Lipodepsipeptide for Immunosuppression Experiments: SR-E was purified as previously described in Bidwai, A. P., Bachmann, R. C. and Takemoto, J. Y., "Mechanism of action of Pseudomonas syringae phytotoxin syringomycin". Plant Physiol. 83:39-43 (1987). A stock solution (10 mg per ml) was prepared in RPMI1640 culture media, aliquoted and stored frozen at -20°.
Lymphocyte stimulation: Lymphocyte stimulation was performed with three different mitogens: phytohemagglutinin (PHA), pokeweed mitogen (PWM), and monoclonal antibody to CD3 (anti-CD3). […]
Mitogen-induced lymphocyte proliferation: Peripheral blood mononuclear cells (MNC) (containing lymphocytes and monocytes) were separated by Ficoll-Hypaque density-gradient centrifugation using techniques well known in the art. Mitogen-induced lymphocyte proliferation was determined as previously described in Singh, V. K., "Stimulatory effect of corticotropin-releasing neurohormone on human lymphocyte proliferation and interleukin-2 receptor expression". […]
[^3 H]-thymadine Incorporation: Cells were pulse-labeled for 4 hours with 0.5 μCi/well of [^3 H]methyl-thymidine (spec. act.=25 Ci/mmol from Amersham Intl.). […] To each vial, 2 ml of CytoScint fluid (ICN Biomedicals) was dispensed and the radioactivity determined using a liquid scintillation counter (Tri-Carb, Packard). […]

[2] = system: Mucor spp.; test: Broth microdilution MIC; format: cell-based; conditions: Table 1 (MICs), 5 isolates, 48 hr
Description: Medium: Liquid RPMI 1640 (RPMI) medium with L-glutamine and without sodium bicarbonate (Sigma Chemical Co., R-6504; St. Louis, Mo.) buffered with 0.165M MOPS (34.54 g/liter) was used for in vitro antifungal tests. The medium was adjusted to pH 7.0 with 10M NaOH and filter sterilized.
Lipodepsipeptide Dilutions: All stock drug solution concentrations were at least 10-fold higher than the highest concentration tested. AmB, ketoconazole, and the test compounds (SR-E, ST-B, and SS-A) were dissolved in sterile distilled water, 0.2N HCl, and 0.001N HCl, respectively. Each stock solution was diluted to 2× the highest concentration of drug tested with RPMI. Two-fold dilutions were made with RPMI medium.
Preparation of Inoculum Suspensions: On Sabouraud dextose agar (SDA; BBL, Becton and Dickinson and Co., Cockeysville, Md.) all isolates were subcultured at least twice before use to ensure purity and viability. Candida spp. and Saccharomyces cerevisiae were grown for 24 hr at 35° C. Isolates of Cryptococcus neoformans were grown for 48 hr at 35° C. Yeast cells from at least five 1-mm-diameter colonies were suspended in 5 ml of sterile 0.85% saline. The resulting suspension was vortexed for 15 sec. The turbidity of each mixed suspension was measured at 530 nm and adjusted to 1×10^6 to 5×10^6 CFU/ml by the NCCLS spectrophotometric method described by National Committee for Clinical Laboratory Standards. 1992. Reference method for broth dilution antifungal susceptibility testing of yeasts; proposed standard, NCCLS document M27-P (ISBN 1-56238-186-5). NCCLS, Villanova. The final transmission of each yeast suspension ranged from 85-87%.
Aspergillus fumigatus and Mucor spp. were grown for 1 wk at 35° C. The dermatophytes, Microsporum spp. and Trichophyton spp., were grown for two wk at 30° C. Fungal spores were washed from the plates of all good spore formers (A. fumigatus, Mucor spp., Microsporum canis and Trichophyton spp.) by placing 5 ml of 0.85% saline with 0.2% Tween 80 on the plates and mixing with an inoculating loop. The spore/mycelium suspension was drawn off with a pipette and allowed to settle for at least 5 min. For the poor spore-forming Microsporum audouinii, the procedure was the same except the spore/mycelial suspension was homogenized with a ground glass tissue homogenizer and then allowed to settle for at least 5 min. A small amount of the supernatant was transferred to 5 ml of sterile saline and vortexed. The stock suspensions of all filamentous fungi were measured at 530 nm and adjusted to 85-87% transmission. The concentration (1×10^6 to 5×10^6 CFU/ml) was determined by hemacytometer count or plate count on SDA. All stock suspensions were diluted 1000-fold with RPMI, or 2× the final desired test inocula. The 2× inoculum was diluted 1:1 when the wells were inoculated, and the desired inoculum size was achieved.
Broth Microdilution Test: Broth microdilution tests were performed using sterile, disposable, multiwell microdilution plates (96 round U-bottom wells) (Falcon 3077; Becton and Dickinson Labware, Lincoln Park, N.J.). The drugs (2× concentrations) were dispensed into the wells of rows number 1 to 10 of the microdilution plates in 100 μl volumes from highest drug concentration to lowest drug concentration. Each well was inoculated with 100 μl of the corresponding 2× concentrated fungal suspension. The wells of row 11 contained the inoculum with drug-free media as a positive growth control and the wells of row 12 contained uninoculated-drug-free medium as a sterility control.
Incubation and Scoring of MIC: All cultures were incubated without shaking at the temperature used during subculture. Incubation times were 48 hr for Candida spp., S. cerevisiae, A. fumigatus, and Mucor spp; 72 hr for C. neoformans; and 7 days for Microsporum and Trichophyton spp. […]

[3] = system: Sheep erythrocytes; test: Erythrocyte toxicity (sheep RBC hemolysis, hemoglobin release); format: cell-based; conditions: 37° C. 1 hr, FIG. 1 and 2
Description: Erythrocyte Toxicity: Sheep red blood cell (RBC) hemolysis was used to assess erythrocyte toxicity of the CLPs and AmB. RBCs (MicroBio Products, Inc., Salt Lake City, Utah) were washed four times with phosphate-buffered-saline (PBS) by centrifugation at 800× g for 10 min and adjusted to 1×10^8 cells/ml as previously described by Chavanet, P., V. Joly, D. Rigaud, J. Bolard, C. Carbon, and P. Yeni. 1994. Influence of diet on experimental toxicity of amphotericin B deoxycholate. Antimicrob. Agents Chemother. 38(5):963-968. RBCs and a 2× concentration of SR-E, ST-B or SS-A in PBS were mixed in a 1:1 ratio and incubated at 37° C. for 1 hr. After incubation, cells were pelleted by centrifugation at 800× g for 10 min and the supernatant was collected and the absorbance at 550 nm was determined. […] Distilled water and PBS were used as lysis and hemoglobin retention controls, respectfully, as described by National Committee for Clinical Laboratory Standards. 1992. Reference method for broth dilution antifungal susceptibility testing of yeasts; proposed standard, NCCLS document M27-P (ISBN 1-56238-186-5). NCCLS, Villanova.

Structure (SMILES) | significant inhibition of PHA response ([1]; 1.14 μM) | suppression of PHA response ([1]; 5.72 μM, p=0.026) [%] | MIC range [2] [µg/mL] | erythrocyte toxicity (lysis, hemoglobin release) [3]
C/C=C1\NC(=O)[C@H](Cc2ccccc2)NC(=O)[C@H](CCCN=C(N)N)NC(=O)[C@@H](CCN)NC(=O)[C@H](CCN)NC(=O)[C@@H](CO)NC(=O)[C@@H](NC(=O)C[C@H](O)CCCCCCCCC)COC(=O)[C@H]([C@H](O)CCl)NC(=O)[C@H]([C@H](O)C(=O)O)NC1=O [SR-E, Syringomycin-E] (X1-S[dS][Dab][dDab]RF[Dhb][Asp(3S-OH)][Thr(4-Cl)]; ester 1-C) | not | 25 | – | –
C/C=C1\NC(=O)C(C(C)O)NC(=O)C(CCCN)NC(=O)C(CCO)NC(=O)CNC(=O)C(CCN)NC(=O)C(NC(=O)CC(O)CCCCCCCCCCC)COC(=O)C(C(O)CCl)NC(=O)C(C(O)C(=O)O)NC1=O (stereo not shown) [ST-B, Syringotoxin B] (X2-S[Dab]G[hSer][Orn]T[Dhb][ξAsp(3ξ-OH)][X3]; ester 1-C; configuration not given here) | – | – | 6.25 to 100 | least toxic of the three CLPs
